Article PMC5537346, “Characterisation and pharmacological analysis of a crustacean G protein-coupled receptor: the red pigment-concentrating hormone receptor of Daphnia pulex” (Scientific Reports, 2017)
Entries after “also recorded” stand apart in the source; their conditions may differ. Where two headings read alike, the source gives them in different places. Where a SMILES comes first, the peptide text is derived from it. [ ]: non-standard residue; d: D form. pGlu = O=C1CC[C@@H](C(=O)O)N1

Experiments:
Palaemon pacificus = tested on: Palaemon pacificus; design: method as in PMID 19686751; details: in vivo, shrimp Palaemon pacificus; cited from earlier work
Nezara viridula = tested on: Nezara viridula; design: method as in PMID 19686751; details: in vivo; cited from earlier work
[1] = biological target: T1, Dappu-RPCHR (Daphnia pulex RPCH receptor) (Daphnia pulex, UniProt A0A240FBD5); assay: in vitro cell-based bioluminescence (aequorin Ca2+) assay on Dappu-RPCHR expressing CHO-WTA11 cells; details: for activation of Dappu-RPCHR (in words): Locmi-ACP statement at 10 µM
T1 sequence (A0A240FBD5 1-451): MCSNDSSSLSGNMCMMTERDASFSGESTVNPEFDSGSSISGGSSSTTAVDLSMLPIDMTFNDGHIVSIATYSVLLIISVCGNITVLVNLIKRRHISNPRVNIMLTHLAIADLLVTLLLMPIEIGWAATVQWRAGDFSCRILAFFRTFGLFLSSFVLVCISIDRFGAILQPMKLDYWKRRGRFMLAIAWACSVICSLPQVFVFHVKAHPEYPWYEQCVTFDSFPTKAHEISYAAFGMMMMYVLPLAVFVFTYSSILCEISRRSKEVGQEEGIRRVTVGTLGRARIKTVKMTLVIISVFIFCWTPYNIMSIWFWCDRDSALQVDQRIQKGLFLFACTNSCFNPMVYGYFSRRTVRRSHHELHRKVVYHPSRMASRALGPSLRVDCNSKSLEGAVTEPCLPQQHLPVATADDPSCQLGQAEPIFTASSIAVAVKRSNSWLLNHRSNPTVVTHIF
Method: Pharmacological analyses were performed in Chinese hamster ovary (CHO) WTA11 cells stably co-expressing the bioluminescent protein apoaequorin and the promiscuous Gα16 subunit, which couples most agonist-induced GPCRs to the phospholipase C and Ca^2+ pathway, irrespective of their natural signalling cascade.
CHO-WTA11 cells were cultured in monolayers in Dulbecco’s Modified Eagles Medium nutrient mixture F12-Ham (DMEM/F12) with L-glutamine, 15 mM HEPES, sodium bicarbonate and phenol red (Sigma-Aldrich) supplemented with 100 IU/ml penicillin and 100 µg/ml streptomycin (Gibco), 10% heat-inactivated fetal bovine serum (Gibco) and […] zeocin (Gibco). All cells were maintained in an incubator at 37 °C with a constant supply of 5% CO2.
Transfections with pcDNA3.1-Dappu-RPCHR or empty pcDNA3.1 vector were carried out in T75 flasks at 60–80% confluency. Transfection medium was prepared using the Lipofectamine LTX Kit (Invitrogen) with 2.5 ml Opti-MEM® (Gibco), 12.5 µl PlusTM Reagent and 5 µg vector construct in 5 ml polystyrene round-bottom tubes. After a 5 min incubation period at room temperature, 30 µl LTX was added to the medium. After a further incubation period of 30 min at room temperature, the medium was removed and DNA/LTX mix was added dropwise to the cells followed by 3 ml of fresh complete medium.
Following transfection, cells were incubated overnight (37 °C, 5% CO2), then 10 ml of cell medium was added followed by a second overnight incubation (37 °C, 5% CO2). Ligand-induced changes in intracellular Ca^2+ were then monitored in the cells as described below.
CHO-WTA11 cells transfected with receptor construct (or empty vector) plasmid were detached with PBS, complemented with 0.2% EDTA (pH 8.0), and rinsed off the flask with DMEM/F12 with L-glutamine and 15 mM HEPES (Sigma-Aldrich). The number of viable and nonviable cells was determined using a TC20 automated Cell Counter (BIO-RAD). The cells were pelleted for 5 minutes at 800 rpm and resuspended to a density of 5.10^6 cells/ml in sterile filtered bovine serum albumin (BSA) medium (DMEM/F12 with L-glutamine and 15 mM Hepes, supplemented with 0.1% BSA) and loaded with 5 µM Coelenterazine_h (Invitrogen) for 4 h in the dark, at room temperature, while gently shaking to reconstitute the holo-enzyme aequorin. After a 10-fold dilution, cell solution (50 µl) was delivered to each well in a 96-well plate (~25000 cells/well) and cells were exposed to potential ligands reconstituted in BSA medium and distributed across the plate. In every row, BSA medium alone was placed in one well to serve as the negative control (blank). The Ca^2+ response was recorded for 30 s on a Mithras LB 940 (Berthold Technologies). After 30 s, 0.1% Triton X-100, a non-ionic surfactant, was added to the same well to measure the total cellular Ca^2+ response. The total response (ligand + Triton X-100), which is directly related to the number of cells present in the well, was used to normalise the response. The response of each negative control was subtracted from the luminescence obtained for wells within the same row. Calculations were made using the output file from the Microwin software (Berthold Technologies) in Excel (Microsoft). Further analysis was done in GraphPad Prism 5.

[2] = Table 2, analogues of Dappu-RPCH

## CC(C)[C@H](NC(=O)[C@@H]1CCC(=O)N1)C(=O)N[C@@H](CC(N)=O)C(=O)N[C@@H](Cc1ccccc1)C(=O)N[C@@H](CO)C(=O)N[C@H](C(=O)N[C@@H](CO)C(=O)N[C@@H](Cc1c[nH]c2ccccc12)C(N)=O)[C@@H](C)O [Dappu-RPCH, pQVNFSTSWamide] ([pGlu]VNFSTSW-NH2)
Palaemon pacificus
  effect on pigment migration in a decapod crustacean: could not affect pigment migration
Nezara viridula
  biological activity in the green stink bug: caused measurable biological activity
[1]
  EC50: 0.065 nM
  concentration at which full activity was achieved: 0.1 nM
[1]; Table 1, AKH/RPCH and related peptides, calculated from dose-response curves
  EC50: 0.0645 nM
[1]; [2]
  EC50: 0.0645 nM

## CC(C)[C@H](NC(=O)[C@@H]1CCC(=O)N1)C(=O)N[C@@H](CC(N)=O)C(=O)N[C@@H](Cc1ccccc1)C(=O)N[C@@H](CO)C(=O)N[C@H](C(=O)N[C@@H](CO)C(=O)N[C@@H](Cc1c[nH]c2ccccc12)C(=O)O)[C@@H](C)O [[Trp-OH]Dappu-RPCH, pQVNFSTSW-OH] ([pGlu]VNFSTSW-OH)
[1]; [2]
  EC50: 17.4 nM
[1]; from EC50 values
  fold lower affinity / potency relative to Dappu-RPCH: 270 fold

## pQTFQYSRGWTNamide [Dappu-Crz]
[1]
  activation of Dappu-RPCHR (in words): did not activate the receptor; also recorded: could not activate the Dappu-RPCHR at all

## pQVTFSRDWSPamide [Locmi-ACP]
[1]
  activation of Dappu-RPCHR (in words): only slightly active
[1]; peptide concentration of 10 µM
  % of the maximum activation: 30%
